# Measured values reported in patent US8173840B2, “Compounds with high therapeutic index” (Signature R&D Holdings, LLC, priority 2003, dated 2012).
# Legend:
# [1] = test system: Spontaneously Hypertensive Rats (SHRs); test: Hemodynamics in Spontaneously Hypertensive Rats; format: in vivo, rat
# Procedure: ACE inhibitors have been known to be useful in antihypertensive therapy for many years. Some ACE inhibitors are delivered orally as the parent drug (captopril) while others are delivered as pro-drugs in order to obtain clinically useful plasma concentrations. This study provides data on the effect of these various enalapril derivatives on hemodynamics in SHRs when given orally and compared to enalapril.
# Briefly, SHRs fitted with right carotid catheters were orally gavaged with 100 mg/kg enalapril or equivalent does of the enalapril derivatives, and the blood pressures were followed continuously up to 3 hours and then a measurement at 24 hours. The animals were conscious throughout the procedure and were placed in a restrainer and hooked up to a pressure transducer and a signal processor. After 3 hours, the animals were placed back into their cage, and blood pressure was finally measured again at 24 hours.
# human volunteers [2] = test: Analgesic and anti-inflammatory effects of S(+)Ibuprofen-L-Threonine Ester in human volunteers; format: in vivo
# Procedure: Determination of the analgesic and anti-inflammatory effects of S(+)Ibuprofen-L-Threonine Ester in three human volunteers was conducted as follows:
# Two male, age 49 and 50 having severe headache took 1 capsule containing S(+)Ibuprofen-L-Threonine Ester manufacturing and formulation under GMP conditions. The capsule contents were equivalent to 200 mg of racemic Ibuprofen. Relief from headache was reported after 15 min, and complete absence of any pain from headache was reported at the end of 1 hour, which lasted for another 12 hours.
# Two males age 49 and 51 took 1 capsule each containing S(+)IbuprofenL-Threonine ester for arthritic knee pain, which was perceptible. […] Such amolearation of pain was further sustained for another 24 hours.
# [3] = test system: fasted male albino rats (Wistar strain); test: Gastric mucosal irritation potential of ibuprofen esters; format: in vivo, rat; settings: two dose levels, 200 mg and 300 mg/kg
# Procedure: The study was conducted at two dose levels viz. 200 mg and 300 mg/kg body weight along with a vehicle control group. At each dose level 5 animals were used.
# The test item was administered as a single dose by gavage. Three hours after drug administration, the animals were killed humanely by CO2 gas inhalation. The stomach was dissected out and observed for • the quantity of mucous exudate, • degree of hyperemia and thickening of stomach wall, • hemorrhagic spots (focal or diffuse), nature of hemorrhages (petechial or ecchymotic) along with the size and • perforations or any other lesions
# [4] = test system: male albino mice (Swiss strain); test: Acetylcholine induced abdominal constriction (writhe) method; format: in vivo, mouse; settings: gavage
# Procedure: Ibuprofen (racemic mixture) and ibuprofen (S)-(+) served as reference controls.
# The study was conducted at two dose levels viz. 50 mg and 100 mg/kg body weight along with a vehicle control group. At each dose level 10 animals were used. All the doses were expressed as ibuprofen molar equivalents. The doses used as well as the molar equivalents are presented below.
# The efficacy in terms of antagonizing effect on acetylcholine induced single writhe at two dose levels—50.0 and 100.0 mg/kg for the three formulations and reference controls are presented below.
# Swiss Albino Mice = test: 28-day chronic toxicity study of ibuprofen esters; settings: 28 days
# From the text: Randomization was done by the method of stratified randomization procedure using SAS software program (Version 8.2) with stratification by bodyweight.
# The duration of dosing was 28 days. All the animals were daily tested until the end of the study for the presence/absence of clinical symptoms of toxicity. Cage side observations included changes in the skin, eyes, posture, gait, respiration and behavior pattern. The incidence of twitching, tremors, convulsions, salivation, diarrhea and death if any, were also recorded.
# [5] = Plasma aspirin and salicylic acid in human volunteers; format: in vivo
# From the text: This is shown in FIG. 12 which depicts the concentration of salicyclic Acid in human plasma with respect to four volunteers who took Acetylsalicyclic Acid-L-Threonine Ester and two volunteers who took Aspirin.
# [6] = test system: albino rats (Wistar strain); test: 28-day repeated dose oral toxicity test of Acetylsalicylic Acid-L-Threonine Ester; settings: 100 mg/kg as aspirin, oral gavage daily 28 days;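 further: one dose level only, compared with a vehicle control group, with doses stated as Aspirin molar equivalents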
# Procedure: (§1) The study was conducted at one dose level only along with a vehicle control group as per the recommendation of the Sponsor. The test doses are expressed as Aspirin molar equivalents.
# Male albino rats = test: Blood clotting time in albino rats, 2 hours after dosing; format: in vivo, rat; settings: 20 mg/kg as aspirin, 2 hours (±10 minutes) after dosing
# Procedure: Aspirin served as positive control. Male albino rats were exposed to aspirin and to 3 new formulations of amino acid derivatives of aspirin derivatives at one dose level of 20 mg/kg body weight. […]. The doses were expressed as aspirin molar equivalents.
# The efficacy in terms of time required for the blood clotting time at the dose level of 20 mg/kg body weight for different formulations of amino acid derivatives of aspirin and aspirin (positive control) are presented below:
# The data on the mean clotting time (MCT) of the animals, estimated 2 hours (±10 minutes) after dosing, at the dose level of 20 mg/kg body weight for the formulations of aspirin derivatives, vehicle control and positive control are presented below
# human volunteers [7] = test: Blood clotting time studies in human volunteers; format: in vivo; settings: human volunteers
# Procedure: Several blood clotting time studies were performed on a limited number of human volunteers with Acetylsalicylic Acid-L-Threonine Ester. […] This plot was derived from the data in Table 29. The two Acetylsalicylic Acid-L-Threonine Ester blocks shown above correspond to two separate volunteers who took the test drug over a period of 5 days. The third volunteer took Bayer Aspirin for 5 days. As per FIG. 2, increase in clotting time occurred on the very first day of drug intake, and remained higher than Bayer ASA during the subsequent administrations.
# women = settings: daily dose of 60 mg, more than 9000 women; cited from earlier work
# rats = test: Clotting time in rats, different date, time intervals and doses (Table 24); format: in vivo, rat
# From the text: The following additional data were obtained, when the same drugs were compared in rats on a different date with different time intervals and doses: […]
# [8] = test system: albino rats (Wistar strain); settings: rat, in vivo
# Procedure: as §1
# [9] = test system: fasted male albino rats (Wistar strain); test: Gastric mucosa irritation of acetylsalicylic acid esters; format: in vivo, rat; settings: single dose by gavage, 3 hours, 5 animals
# Procedure: Aspirin served as a reference control. […] All the doses were expressed as aspirin molar equivalents. The doses used as well as the molar equivalents are presented below. The rats were fasted for a period of 18 to 22 hours before dosing. The test item was administered as a single dose by gavage. Three hours after drug administration, the animals were killed humanely by CO2 gas inhalation. The stomach was dissected out and observed for • the quantity of mucous exudate, • degree of hyperemia and thickening of stomach wall, • hemorrhagic spots (focal or diffuse), nature of hemorrhages (petechial or ecchymotic) along with the size and • perforations
# albino rats = test: Blood clotting time in albino rats, one hour after dosing; format: in vivo, rat; settings: one hour after dosing
# Procedure: The data on the mean clotting time (MCT) of the animals of low, intermediate and high dose groups of different formulations, vehicle control and positive control groups estimated one hour after dosing were presented below (Table 19):
# Aspirin served as positive control. The study was conducted at three dose levels with the new formulations and positive control along with a vehicle control group.
# The doses for the main study were selected based on the dose range finding experiments with acetylsalicylic acid. All the doses were expressed as aspirin molar equivalents. The doses used are presented below.
# [10] = 1 capsule equivalent to 200 mg racemic Ibuprofen
# [11] = 50.0 mg/kg in terms of Ibuprofen
# [12] = 100.0 mg/kg in terms of Ibuprofen
compound,measurement,setting,value
CCOC(=O)[C@H](CCc1ccccc1)N[C@@H](C)C(=O)N1CCC[C@H]1C(=O)O [Enalapril],reduction of blood pressure,"[1]; 100 mg/kg oral gavage, at 3 hours and 24 hours",approximately 20%
same,arterial blood pressure,"[1]; oral, 100 mg/kg enalapril or equivalent doses",reduced arterial blood pressure
"CC(C)Cc1ccc([C@H](C)C(=O)O[C@H](C)[C@H](N)C(=O)O)cc1.Cl [S-(+)-Ibuprofen-L-threonine ester, 2(S)-Amino-3(R)-[2(S)-(4-isobutyl-phenyl)-propionyloxy]-butyric acid]",amelioration of knee pain sustained for another,human volunteers [2]; 1 capsule,24 h
same,absence of headache pain lasted for another,human volunteers [2]; [10],12 h
same,complete absence of any pain from headache reported at the end of,human volunteers [2]; [10],1 h
same,relief from headache reported after,"human volunteers [2]; 1 capsule equivalent to 200 mg racemic Ibuprofen, two males with severe headache",15 min
same,arthritic knee pain,"human volunteers [2]; 1 capsule, two males, after 12 hours",significant reduction is the pain associated with their right knee
same,irritation of gastric mucosa,[3],significantly and completely non-toxic to GI mucosa in the rats tested
same,"Number of animals showing absence of single writhe (number of animals per dose = 10), One hour after dosing",[4]; [11],1
same,"Number of animals showing absence of single writhe (number of animals per dose = 10), Three hours after dosing",[4]; [11],0
same,"Number of animals showing absence of single writhe (number of animals per dose = 10), One hour after dosing",[4]; [12],3
same,"Number of animals showing absence of single writhe (number of animals per dose = 10), Three hours after dosing",[4]; [12],0
same,No of animals survived,Swiss Albino Mice; 10 animals per group,10
same,animals that died,Swiss Albino Mice; both sexes,none of the animals
same,Mortality,Swiss Albino Mice; Female,Nil
same,Mortality,Swiss Albino Mice; Male,Nil
same,Average Change In body Weight,Swiss Albino Mice; surviving animals,−0.68 gms
same,Percentage Change of body weight,Swiss Albino Mice; surviving animals,−3.61%
"CC(=O)Oc1ccccc1C(=O)O [acetylsalicylic acid, reference compound]","Salicylic Acid in human plasma (profile, words)",[5],Rapid influx and efflux of Salicylic Acid
same,Aspirin in blood / plasma,"[5]; 325 mg dose, oral",showed Plasma levels of Aspirin
same,survival,[6],survived through the dosing period of 28 days
same,Mean Clotting Time (± S.D.),Male albino rats,5.4 ± 1.17 min
same,AVERAGE CLOTTING TIME,human volunteers [7]; 81 mg,4.5 min
same,AVERAGE CLOTTING TIME,human volunteers [7]; 325 mg,5.7 min
same,reduced the risk of pre-eclampsia by,women,13%
same,Clotting Time,rats; 10 mg/kg 1 hr,9.8 min
same,Clotting Time,rats; 10 mg/kg 24 hr,4.4 min
same,Clotting Time,rats; 20 mg/kg 2 hr,5.4 min
same,"Alkaline Phosphatase, Significance [P < 0.05]",[8],Increase (Female)
same,"All Blood Parameters, Significance [P < 0.05]",[8],None
same,"Blood Urea, Significance [P < 0.05]",[8],Decrease (Female)
same,Food intake,[8],normal and comparable to the animals of vehicle control group
same,"Kidney (Abs) organ weight, Significance[P < 0.05]",[8],Decrease (Male)
same,"Kidney (Rel) organ weight, Significance[P < 0.05]",[8],Increase (Male)
same,"SGPT and Cholesterol, Significance [P < 0.05]",[8],Increase (Male)
same,"Sodium, Significance [P < 0.05]",[8],Increase (Female)
same,"Spleen (Abs) organ weight, Significance[P < 0.05]",[8],Decrease (Female)
same,"Spleen (Rel) organ weight, Significance[P < 0.05]",[8],Increase (Female)
same,histological sections of organs,[8],mild fatty changes in the cardiac muscle fibers of heart and mild catarrhal changes of gastric mucosa
same,"Observation, gastric mucosal irritation","[9]; 100.0 mg/kg as acetylsalicylic acid, listed as aspirin",failed to cause any evidence of gastric mucosal irritation
same,"Observation, gastric mucosal irritation","[9]; 200.0 mg/kg as acetylsalicylic acid, listed as aspirin (acetylsalicylic acid)",caused irritation of the gastric mucosal in all the fasted male albino rats
same,"Mean Clotting Time (±S.D.), Low Dose",albino rats; 1.0 mg/kg as aspirin,6.2 ± 1.40 min
same,"Mean Clotting Time (±S.D.), Intermediate Dose",albino rats; 4.0 mg/kg as aspirin,8.1 ± 1.97 min
same,"Mean Clotting Time (±S.D.), High Dose",albino rats; 10.0 mg/kg as aspirin,9.8 ± 1.32 min
same,statistical analysis of mean clotting time vs vehicle control,albino rats,significant improvement at 5% significance level in the efficacy for the intermediate and high dose
